Data: US9481676B2, “Azepino[4,5-B]indoles and methods of use” (Medivation Technologies, Inc., priority 2008, dated 2016)

Target: T1, human recombinant adrenergic α2B receptor (Homo sapiens, UniProt P18089)
T1 construct: expressed in transfected cells; host or cells: CHO-K1 cells
T1 sequence (P18089 1-450): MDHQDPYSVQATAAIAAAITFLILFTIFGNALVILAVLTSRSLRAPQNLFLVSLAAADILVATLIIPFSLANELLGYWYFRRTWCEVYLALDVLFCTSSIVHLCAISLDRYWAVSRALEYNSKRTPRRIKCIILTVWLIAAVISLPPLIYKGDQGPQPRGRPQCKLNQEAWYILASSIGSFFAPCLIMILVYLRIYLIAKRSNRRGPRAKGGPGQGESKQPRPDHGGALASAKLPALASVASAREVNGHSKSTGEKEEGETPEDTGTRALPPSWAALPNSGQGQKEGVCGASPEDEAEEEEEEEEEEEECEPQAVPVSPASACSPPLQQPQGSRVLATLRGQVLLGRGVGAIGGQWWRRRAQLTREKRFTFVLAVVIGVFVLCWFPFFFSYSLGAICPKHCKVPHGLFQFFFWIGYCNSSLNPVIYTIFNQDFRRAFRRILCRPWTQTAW
Assay: Adrenergic alpha2B radioligand binding ([3H]Rauwolscine)
Settings: compound at 1 μM; read-out: Adrenergic (1 μM) α2B, percent inhibition of specific binding
Protocol: To evaluate in radioligand binding assays the activity of compounds of the invention, human recombinant adrenergic α2B receptor expressed in Chinese hamster ovary (CHO-K1) cells (Uhlen S et al. Eur J. Pharmacol. 343(1):93, 1998) in a modified Tris-HCl buffer (50 mM Tris-HCl, pH 7.4, 12.5 mM MgCl2, 1 mM EDTA, 0.2% BSA) was used. Compounds of the invention were incubated with 2.5 nM [^3H]Rauwolscine for 60 min. at 25° C. Non-specific binding was estimated in the presence of 10 μM Prozosin. Receptor proteins were filtered and washed, the filters were then counted to determine [^3H]Rauwolscine specifically bound. Compounds were screened at 1 μM or lower, using 1% DMSO as vehicle. Biochemical assay results are presented as the percent inhibition of specific binding in Table 5.

Structure (SMILES) | inhibition at 1 µM [%]
Cc1ccc2c(c1)c1c(n2CCc2cncc(Cl)c2)CCN(C)CC1 [Compound No. 4, 6-(2-(5-chloropyridin-3-yl)ethyl)-1,2,3,4,5,6-hexahydro-3,9-dimethylazepino[4,5-b]indole] | 93
CN1CCc2c(n(CCc3ccncc3)c3ccc(Cl)cc23)CC1 [Compound No. 5, 9-chloro-1,2,3,4,5,6-hexahydro-3-methyl-6-(2-(pyridin-4-yl)ethyl)azepino[4,5-b]indole] | 100
Cc1ccc2c(c1)c1c(n2CCc2ccncc2)CCN(C)CC1 [Compound No. 6, 1,2,3,4,5,6-hexahydro-3,9-dimethyl-6-(2-(pyridin-4-yl)ethyl)azepino[4,5-b]indole] | 106
Cc1ccc(C(O)Cn2c3c(c4cc(Cl)ccc42)CCN(C)CC3)cn1 (stereo not shown) [Compound No. 7, 2-(9-chloro-2,3,4,5-tetrahydro-3-methylazepino[4,5-b]indol-6(1H)-yl)-1-(6-methylpyridin-3-yl)ethanol] | 101
CN1CCc2c(n(CCc3ccccn3)c3ccc(Cl)cc23)CC1 [Compound No. 8, 9-chloro-1,2,3,4,5,6-hexahydro-3-methyl-6-(2-(pyridin-2-yl)ethyl)azepino[4,5-b]indole] | 103
Cc1ccc2c(c1)c1c(n2CCc2ccccn2)CCN(C)CC1 [Compound No. 9, 1,2,3,4,5,6-hexahydro-3,9-dimethyl-6-(2-(pyridin-2-yl)ethyl)azepino[4,5-b]indole] | 90
CN1CCc2c(n(CCc3cncc(Cl)c3)c3ccc(Cl)cc23)CC1 [Compound No. 10, 9-chloro-6-(2-(5-chloropyridin-3-yl)ethyl)-1,2,3,4,5,6-hexahydro-3-methylazepino[4,5-b]indole] | 101
Cc1ccc2c(c1)c1c(n2CCc2ccc(C(=O)O)nc2)CCN(C)CC1 [Compound No. 11, 5-(2-(2,3,4,5-tetrahydro-3,9-dimethylazepino[4,5-b]indol-6(1H)-yl)ethyl)pyridine-2-carboxylic acid] | 3
CN1CCc2c(n(CC(C)(O)c3ccc(Cl)cc3)c3ccc(Cl)cc23)CC1 (stereo not shown) [Compound No. 12, 1-(9-chloro-2,3,4,5-tetrahydro-3-methylazepino[4,5-b]indol-6(1H)-yl)-2-(4-chlorophenyl)propan-2-ol] | 103
CN1CCc2c(n(CC(C)(O)c3ccc(F)cc3)c3ccc(Cl)cc23)CC1 (stereo not shown) [Compound No. 13, 1-(9-chloro-2,3,4,5-tetrahydro-3-methylazepino[4,5-b]indol-6(1H)-yl)-2-(4-fluorophenyl)propan-2-ol] | 105
Cc1ccc2c(c1)c1c(n2CC(C)(O)c2ccc(F)cc2)CCN(C)CC1 (stereo not shown) [Compound No. 14, 2-(4-fluorophenyl)-1-(2,3,4,5-tetrahydro-3,9-dimethylazepino[4,5-b]indol-6(1H)-yl)propan-2-ol] | 100
Cc1ccc2c(c1)c1c(n2CC(C)(O)c2ccc(Cl)cc2)CCN(C)CC1 (stereo not shown) [Compound No. 15, 2-(4-chlorophenyl)-1-(2,3,4,5-tetrahydro-3,9-dimethylazepino[4,5-b]indol-6(1H)-yl)propan-2-ol] | 104
CN1CCc2c(n(CC(O)c3ccc(Cl)cc3)c3ccc(Cl)cc23)CC1 (stereo not shown) [Compound No. 16, 2-(9-chloro-2,3,4,5-tetrahydro-3-methylazepino[4,5-b]indol-6(1H)-yl)-1-(4-chlorophenyl)ethanol] | 99
Cc1ccc2c(c1)c1c(n2CC(O)c2ccc(Cl)cc2)CCN(C)CC1 (stereo not shown) [Compound No. 17, 1-(4-chlorophenyl)-2-(2,3,4,5-tetrahydro-3,9-dimethylazepino[4,5-b]indol-6(1H)-yl)ethanol] | 99
CN1CCc2c(n(CC(O)c3cccnc3)c3ccc(Cl)cc23)CC1 (stereo not shown) [Compound No. 18, 2-(9-chloro-2,3,4,5-tetrahydro-3-methylazepino[4,5-b]indol-6(1H)-yl)-1-(pyridin-3-yl)ethanol] | 98
Cc1ccc2c(c1)c1c(n2CC(O)c2cccnc2)CCN(C)CC1 (stereo not shown) [Compound No. 19, 2-(2,3,4,5-tetrahydro-3,9-dimethylazepino[4,5-b]indol-6(1H)-yl)-1-(pyridin-3-yl)ethanol] | 90
Cc1ccc2c(c1)c1c(n2CCc2ccc(C(F)(F)F)nc2)CCN(C)CC1 [Compound No. 20, 6-(2-(6-(trifluoromethyl)pyridin-3-yl)ethyl)-1,2,3,4,5,6-hexahydro-3,9-dimethylazepino[4,5-b]indole] | 88

Structure (SMILES) | inhibition at 1 µM [%]
CN1CCc2c(n(CCc3ccc(C(=O)O)nc3)c3ccc(Cl)cc23)CC1 [Compound No. 21, 5-(2-(9-chloro-2,3,4,5-tetrahydro-3-methylazepino[4,5-b]indol-6(1H)-yl)ethyl)pyridine-2-carboxylic acid] | 6
Cc1ccc2c(c1)c1c(n2CC(=O)NC2CCCCC2)CCN(C)CC1 [Compound No. 22, N-cyclohexyl-2-(2,3,4,5-tetrahydro-3,9-dimethylazepino[4,5-b]indol-6(1H)-yl)acetamide] | -7
Cc1ccc2c(c1)c1c(n2CC(O)c2ccc(C)nc2)CCN(C)CC1 (stereo not shown) [Compound No. 23, 2-(2,3,4,5-tetrahydro-3,9-dimethylazepino[4,5-b]indol-6(1H)-yl)-1-(6-methylpyridin-3-yl)ethanol] | 25
CN1CCc2c(n(CC(O)c3ccccc3)c3ccc(Cl)cc23)CC1 (stereo not shown) [Compound No. 24, 2-(9-chloro-2,3,4,5-tetrahydro-3-methylazepino[4,5-b]indol-6(1H)-yl)-1-phenylethanol] | 99
Cc1ccc2c(c1)c1c(n2CC(O)c2ccccc2)CCN(C)CC1 (stereo not shown) [Compound No. 25, 2-(2,3,4,5-tetrahydro-3,9-dimethylazepino[4,5-b]indol-6(1H)-yl)-1-phenylethanol] | 104
Cc1ccc(C(O)Cn2c3c(c4cc(Cl)ccc42)CCN(C)CC3)cc1 (stereo not shown) [Compound No. 26, 2-(9-chloro-2,3,4,5-tetrahydro-3-methylazepino[4,5-b]indol-6(1H)-yl)-1-p-tolylethanol] | 104
Cc1ccc(C(O)Cn2c3c(c4cc(C)ccc42)CCN(C)CC3)cc1 (stereo not shown) [Compound No. 27, 2-(2,3,4,5-tetrahydro-3,9-dimethylazepino[4,5-b]indol-6(1H)-yl)-1-p-tolylethanol] | 100
Cc1ccc2c(c1)c1c(n2CCc2ccc(Cl)cc2)CCN(C)CC1 [Compound No. 28, 6-(4-chlorophenethyl)-1,2,3,4,5,6-hexahydro-3,9-dimethylazepino[4,5-b]indole] | 103
CN1CCc2c(n(CCc3ccccc3Cl)c3ccc(Cl)cc23)CC1 [Compound No. 29, 6-(2-chlorophenethyl)-9-chloro-1,2,3,4,5,6-hexahydro-3-methylazepino[4,5-b]indole] | 101
CN1CCc2c(n(CCc3ccc(Cl)cc3)c3ccc(Cl)cc23)CC1 [Compound No. 30, 6-(4-chlorophenethyl)-9-chloro-1,2,3,4,5,6-hexahydro-3-methylazepino[4,5-b]indole] | 100
CC(C)NC(=O)Cn1c2c(c3cc(Cl)ccc31)CCN(C)CC2 [Compound No. 31, 2-(9-chloro-2,3,4,5-tetrahydro-3-methylazepino[4,5-b]indol-6(1H)-yl)-N-isopropylacetamide] | 23
Cc1ccc2c(c1)c1c(n2CC(=O)N2CCCCC2)CCN(C)CC1 [Compound No. 32, 2-(2,3,4,5-tetrahydro-3,9-dimethylazepino[4,5-b]indol-6(1H)-yl)-1-(piperidin-1-yl)ethanone] | 22
C/C(=C\n1c2c(c3cc(C)ccc31)CCN(C)CC2)c1ccc(Cl)cc1 [Compound No. 33, 6-((E)-2-(4-chlorophenyl)prop-1-enyl)-1,2,3,4,5,6-hexahydro-3,9-dimethylazepino[4,5-b]indole] | 103
C/C(=C\n1c2c(c3cc(C)ccc31)CCN(C)CC2)c1ccc(F)cc1 [Compound No. 34, 6-((E)-2-(4-fluorophenyl)prop-1-enyl)-1,2,3,4,5,6-hexahydro-3,9-dimethylazepino[4,5-b]indole] | 110
C=C(Cn1c2c(c3cc(Cl)ccc31)CCN(C)CC2)c1ccc(Cl)cc1 [Compound No. 35, 9-chloro-6-(2-(4-chlorophenyl)allyl)-3-methyl-1,2,3,4,5,6-hexahydroazepino[4,5-b]indole] | 112
C/C(=C\n1c2c(c3cc(Cl)ccc31)CCN(C)CC2)c1ccc(Cl)cc1 [Compound No. 36, 9-chloro-6-((E)-2-(4-chlorophenyl)prop-1-enyl)-1,2,3,4,5,6-hexahydro-3-methylazepino[4,5-b]indole] | 101
CN1CCc2c(n(CC(=O)Nc3ccc(F)cc3)c3ccc(Cl)cc23)CC1 [Compound No. 37, 2-(9-chloro-2,3,4,5-tetrahydro-3-methylazepino[4,5-b]indol-6(1H)-yl)-N-(4-fluorophenyl) acetamide] | 70
